The values below come from PMC7497679, “Structure-based design, synthesis, and evaluation of the biological activity of novel phosphoroorganic small molecule IAP antagonists” (Investigational New Drugs, 2020).

What is called IC50 is the concentration that gives 50% inhibition. In general, Ki refers to a measure of affinity in units of concentration, obtained from inhibition or displacement. As usually defined, the EC50 is the concentration needed to bring the measured effect to its halfway point.

In one assay the test system is UMUC-3. The assay can be described thus: Antiproliferative activity, SRB method. It counts as cell-based, human. The settings on record: Homo sapiens, UMUC3, 10 µM, 72 h, read-out: mean proliferation inhibition at highest concentration used, UMUC-3. The source says: (§1) MDA-MB-231 (human breast cancer), MCF10A (human, nontumorigenic mammary gland epithelial cells), A549 (human nonsmall-cell lung cancer), UMUC-3 (human bladder cancer) and LoVo (human colon cancer) cell lines were obtained from the American Type Culture Collection (ATCC; Rockville, Maryland, USA). The MCF-7 cell line (human breast cancer) was obtained from the European Collection of Cell Cultures (ECACC; Salisbury, UK). All cell lines were maintained at the Hirszfeld Institute of Immunology and Experimental Therapy (HIIET), Wrocław, Poland. MDA-MB-231 cells were cultured in RPMI1640 medium (Thermo Fisher Scientific, Warszawa, Poland) supplemented with 2 mM L-glutamine, 1 mM sodium pyruvate, and 10% fetal bovine serum (all from Sigma-Aldrich, Poznań, Poland). The MCF10A cell line was cultured in Ham’s F12 medium with glutamine (Corning) supplemented with 5% (v/v) fetal bovine serum (FBS), 5% (v/v) horse serum, 10 µg/mL insulin, 0.05 µg/mL cholera toxin, 0.5 µg/mL hydrocortisone, and 20 ng/mL hEGF (all from Sigma-Aldrich). A549 and LoVo cells were cultured in a 1:1 (v/v) mixture of RPMI1640 and Opti-MEM (both from HIIET) supplemented with 5% (v/v) FBS and 2 mM L-glutamine. The UMUC-3 cell line was cultured in high glucose DMEM (Thermo Fisher Scientific) supplemented with 10% FBS and 2 mM Lglutamine. The MCF-7 line was cultured in Eagle’s minimal essential medium (EMEM; Thermo Fisher Scientific) supplemented with 10% (v/v) FBS, 2 mM L-glutamine, 1% (v/v) nonessential amino acids, and 8 µg/mL insulin (all from Sigma-Aldrich). All culture media contained 100 µg/mL streptomycin (Sigma-Aldrich) and 100 U/mL penicillin (Polfa Tarchomin SA, Warszawa, Poland). The cells were grown at 37 °C in a humid atmosphere saturated with 5% CO2.
(§2) Antiproliferative activity was assessed in six cell lines utilizing the sulforhodamine B (SRB) method. Briefly, cells were seeded in 96-well plates (Sarstedt, Warszawa, Poland) at a density of 5 × 10^3 cells/well, and after overnight incubation, the cells were exposed to compounds at various concentrations. After 72 h, the plates were fixed with 50% (v/v) TCA (all from Sigma-Aldrich), washed with tap water, and the precipitated proteins were labeled with 0.1% (w/v) SRB solution in 1% (v/v) AcOH. Next, the plates were washed with 1% (v/v) AcOH, and the remaining SRB dye was solubilized with 10 mM unbuffered TRIS solution. The absorbance was measured using a Biotek Hybrid H4 reader (BioTek Instruments, VT, USA) at 540 nm. Crude results were analyzed using a previously described method, and the results are expressed as the IC50 (compound concentration that reduced cell growth by 50%) compared to the vehicletreated control (0.1% (v/v) DMSO). The samples were analyzed in triplicate, and each experiment was repeated at least three times.
In general terms: The SRB assay estimates cell density from bound dye.

The subject of a further assay is MCF-7. The assay can be described thus: Antiproliferative activity, SRB method. The settings on record: Homo sapiens, MCF7, 10 µM, 72 h, read-out: mean proliferation inhibition at highest concentration used, MCF-7. The assay is classed as cell-based, human.
Source text: as §1, §2

In another assay the test system is LoVo. The assay can be described thus: Antiproliferative activity, SRB method. The settings on record: Homo sapiens, LoVo, 10 µM, 72 h, read-out: mean proliferation inhibition at highest concentration used, LoVo. It counts as cell-based, human.
Source text: as §1, §2

In the next assay the test system is A549. The assay can be described thus: Antiproliferative activity, SRB method. It counts as cell-based, human. The settings on record: Homo sapiens, A549, 10 µM, 72 h, read-out: mean proliferation inhibition at highest concentration used, A549.
Source text: as §1, §2

A further assay relates to MDA-MB-231. The assay can be described thus: Antiproliferative activity, SRB method. The assay is classed as cell-based, human. The settings on record: Homo sapiens, MDA-MB-231, 72 h, read-out: IC50 ± SD (n = 3) MDA-MB-231.
Source text: as §1, §2

A further assay relates to MCF-10A. The assay can be described thus: Antiproliferative activity, SRB method. The assay is classed as cell-based, human. The settings on record: Homo sapiens, MCF-10A, 10 µM, 72 h, read-out: mean proliferation inhibition at highest concentration used, MCF-10A.
Source text: as §1, §2

For another assay, the target named is T1, XIAP BIR3 domain (Homo sapiens, UniProt P98170).
T1 construct: fluorescent probe 4 and the XIAP BIR3 domain (Sino Biological, Beijing, China) were used for all measurements; purchased Sino Biological, Beijing, China
T1 sequence (P98170 252-356 limits assumed): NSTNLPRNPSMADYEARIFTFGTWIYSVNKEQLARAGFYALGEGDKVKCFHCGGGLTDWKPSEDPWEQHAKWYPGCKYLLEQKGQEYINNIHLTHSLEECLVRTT
The assay can be described thus: Fluorescence polarization inhibition (competition) assay. As to conditions: for inhibition at 50 µM: 0.5 h, antagonist 50 µM, inhibition of protein-probe interaction; for Ki / EC50: XIAP BIR3 50 nM, fluorescent probe 4 2 nM. The assay is classed as binding. An outline of the steps:
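BIR3 protein (50 nM) preincubated 15 min at r.t. with compound (50 μM to 0.0537 nM), then fluorescent probe 4 (2 nM) added and polarization read 30 min later (ex 484, em 528 nm). Phosphate buffer pH 7.5 with γ-globulin, NaN3, 1.4% DMSO; duplicates. EC50 from variable-slope fit, converted to Ki.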

Where two headings read alike, the source gives them in different places.

Take `CN[C@@H](C)C(=O)N[C@H](C(=O)N1CCC[C@H]1C(=O)NC(Cc1ccccc1)P(=O)(Oc1ccccc1)Oc1ccccc1)C1CCCCC1` (stereo partly drawn) [Compound 42, diphenyl (1-((S)-1-((S)-2-cyclohexyl-2-((S)-2-(methylamino)propanamido)acetyl)pyrrolidine-2-carboxamido)-2-phenylethyl)phosphonate]: the inhibition at 10 µM with UMUC-3 stood at 6%; in the assay with MCF-7, 16%; with LoVo, 12%; in the assay with A549, 23%; in the assay on MCF-10A, 2%. Moreover, the IC50 with MDA-MB-231 turned out to be 2460 ± 380 nM. Also, the inhibition at 50 µM at XIAP BIR3 domain turned out to be 100%. The Ki at XIAP BIR3 domain turned out to be 350 nM. Besides, the results for the EC50 at XIAP BIR3 domain (read-out: EC50) and at XIAP BIR3 domain (read-out: log EC50 (converted)) were 740 nM and 738 nM, respectively.
For the compound `CN[C@@H](C)C(=O)N[C@H](C(=O)N1CCC[C@H]1C(=O)NC(Cc1ccccc1)P(=O)(Oc1ccccc1)Oc1ccccc1)C(C)C` (stereo partly drawn) [Compound 41, diphenyl (1-((S)-1-((S)-3-methyl-2-((S)-2-(methylamino)propanamido)butanoyl)pyrrolidine-2-carboxamido)-2-phenylethyl)phosphonate], the inhibition at 10 µM was 5% in the assay on UMUC-3; 20% with MCF-7; 11% with LoVo; 10% with A549; 2% in the assay on MCF-10A. Moreover, the IC50 in the assay on MDA-MB-231 was found to be 2580 ± 320 nM. Also, the inhibition at 50 µM at XIAP BIR3 domain was 100%. In addition, the Ki at XIAP BIR3 domain is 50 nM. Besides, the EC50 on XIAP BIR3 domain (read-out: EC50) was 130 nM; at XIAP BIR3 domain (read-out: log EC50 (converted)), 131 nM.
